Columns and labels:
[1] = biological target: T1, Mouse DNA polymerase ι (Mus musculus, UniProt Q6R3M4); assay: DNA polymerase activity assay, mouse pol ι; assay type: biochemical; conditions: Y-family pol; read-out: IC50 Value of MK-2, Mouse DNA polymerase ι
T1 construct: made in house
Protocol: (§1) Pols from mammals, a fish (cherry salmon), an insect (fruit fly) and a plant (cauliflower) were purified, and prokaryotic pols and other DNA metabolic enzymes, such as T7 RNA polymerase, T4 polynucleotide kinase and bovine deoxyribonuclease I, were purchased as described in our previous report. The activities of all pols and other DNA metabolic enzymes were measured as described in previous reports.
(§2) The components of the pol assay were poly(dA)/oligo(dT)18 and dTTP as the DNA template-primer and 2′-deoxyribonucleoside 5′-triphosphate (dNTP) substrate, respectively. VK2, VK3, and their synthesized derivatives (i.e., MK-3, MK-2 and MK-1) were dissolved in dimethyl sulfoxide (DMSO) at various concentrations and sonicated for 30 s. The sonicated samples (4 μL) were mixed with 16 μL of each pol enzyme (final amount, 0.05 units) in 50 mM Tris-HCl (pH 7.5) containing 1 mM dithiothreitol, 50% glycerol and 0.1 mM EDTA, and kept at 0 °C for 10 min. […] Activity without the inhibitor was considered to be 100%, and the activity remaining at each concentration of inhibitor was determined relative to this value. […]

[2] = biological target: T2, Fruit fly DNA polymerase α (Drosophila melanogaster, UniProt P26019); assay: DNA polymerase activity assay, fruit fly pol α; assay type: biochemical; conditions: insect pol; read-out: IC50 Value of MK-2, Fruit fly DNA polymerase α
T2 construct: made in house
T2 sequence (P26019 whole entry): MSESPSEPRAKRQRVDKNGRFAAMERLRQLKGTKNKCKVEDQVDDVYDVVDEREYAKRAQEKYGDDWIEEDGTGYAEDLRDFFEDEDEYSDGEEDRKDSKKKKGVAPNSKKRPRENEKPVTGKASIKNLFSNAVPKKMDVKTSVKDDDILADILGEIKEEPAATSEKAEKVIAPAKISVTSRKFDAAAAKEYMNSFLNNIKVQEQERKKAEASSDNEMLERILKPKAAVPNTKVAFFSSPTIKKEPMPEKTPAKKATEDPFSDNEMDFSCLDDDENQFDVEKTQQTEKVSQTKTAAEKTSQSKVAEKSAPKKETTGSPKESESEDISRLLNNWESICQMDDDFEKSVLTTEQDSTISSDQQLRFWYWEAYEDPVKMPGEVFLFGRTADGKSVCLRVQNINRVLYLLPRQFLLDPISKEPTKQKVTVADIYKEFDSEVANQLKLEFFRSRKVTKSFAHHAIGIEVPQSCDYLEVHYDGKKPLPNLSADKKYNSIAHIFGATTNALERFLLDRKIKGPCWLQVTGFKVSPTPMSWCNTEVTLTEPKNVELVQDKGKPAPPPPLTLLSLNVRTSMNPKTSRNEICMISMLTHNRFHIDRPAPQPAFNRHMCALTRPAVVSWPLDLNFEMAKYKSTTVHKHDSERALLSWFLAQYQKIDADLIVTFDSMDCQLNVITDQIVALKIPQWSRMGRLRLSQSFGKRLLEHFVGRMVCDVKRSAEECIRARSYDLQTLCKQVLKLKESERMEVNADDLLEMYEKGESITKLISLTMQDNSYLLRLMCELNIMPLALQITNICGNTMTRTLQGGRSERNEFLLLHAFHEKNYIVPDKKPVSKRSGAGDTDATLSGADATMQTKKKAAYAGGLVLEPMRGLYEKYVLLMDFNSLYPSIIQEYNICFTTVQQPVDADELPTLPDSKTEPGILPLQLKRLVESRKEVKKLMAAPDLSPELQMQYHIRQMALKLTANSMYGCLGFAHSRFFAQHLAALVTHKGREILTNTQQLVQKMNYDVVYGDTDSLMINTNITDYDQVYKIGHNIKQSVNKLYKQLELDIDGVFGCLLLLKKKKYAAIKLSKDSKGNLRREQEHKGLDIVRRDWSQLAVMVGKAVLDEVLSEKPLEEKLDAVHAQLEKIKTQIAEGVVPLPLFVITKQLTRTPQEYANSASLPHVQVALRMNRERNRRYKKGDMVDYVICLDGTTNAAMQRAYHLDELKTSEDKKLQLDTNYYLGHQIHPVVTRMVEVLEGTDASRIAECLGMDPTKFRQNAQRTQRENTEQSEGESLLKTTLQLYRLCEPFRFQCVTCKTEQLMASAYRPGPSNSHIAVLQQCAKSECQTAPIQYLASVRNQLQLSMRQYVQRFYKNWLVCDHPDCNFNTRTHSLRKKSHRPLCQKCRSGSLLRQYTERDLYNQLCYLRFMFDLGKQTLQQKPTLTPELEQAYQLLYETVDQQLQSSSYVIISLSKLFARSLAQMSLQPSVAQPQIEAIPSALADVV
Protocol: as §1, §2

[3] = biological target: T3, Taq DNA polymerase (Thermus aquaticus, UniProt P19821); assay: DNA polymerase activity assay, Taq pol; assay type: biochemical; conditions: prokaryotic pol; incubated at 74 °C; read-out: IC50 Value of MK-2, Taq DNA polymerase
T3 construct: purchased
T3 sequence (P19821 whole entry): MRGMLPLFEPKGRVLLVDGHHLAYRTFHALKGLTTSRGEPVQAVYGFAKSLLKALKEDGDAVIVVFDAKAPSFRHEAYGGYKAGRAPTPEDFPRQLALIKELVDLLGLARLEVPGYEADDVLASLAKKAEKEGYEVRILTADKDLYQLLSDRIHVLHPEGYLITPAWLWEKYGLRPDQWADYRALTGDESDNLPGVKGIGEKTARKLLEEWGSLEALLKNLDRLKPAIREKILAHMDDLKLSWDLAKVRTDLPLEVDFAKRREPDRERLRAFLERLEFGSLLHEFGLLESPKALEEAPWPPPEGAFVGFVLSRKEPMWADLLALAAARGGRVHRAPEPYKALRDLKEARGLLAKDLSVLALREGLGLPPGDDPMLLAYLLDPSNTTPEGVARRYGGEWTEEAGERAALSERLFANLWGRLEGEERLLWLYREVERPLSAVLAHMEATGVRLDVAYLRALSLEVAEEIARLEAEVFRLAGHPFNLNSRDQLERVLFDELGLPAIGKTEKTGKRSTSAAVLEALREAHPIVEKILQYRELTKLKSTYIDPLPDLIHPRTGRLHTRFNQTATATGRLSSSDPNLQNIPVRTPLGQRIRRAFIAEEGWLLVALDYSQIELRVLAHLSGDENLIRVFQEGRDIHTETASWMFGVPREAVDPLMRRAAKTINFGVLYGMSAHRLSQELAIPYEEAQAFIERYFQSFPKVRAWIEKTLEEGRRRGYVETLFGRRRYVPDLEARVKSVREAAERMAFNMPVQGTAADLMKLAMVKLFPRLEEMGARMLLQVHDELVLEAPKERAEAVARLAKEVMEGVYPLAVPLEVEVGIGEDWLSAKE
Protocol: as §1, §2

[4] = biological target: Calf Terminal deoxynucleotidyl transferase (Bos taurus, UniProt P06526); assay: DNA polymerase activity assay, calf TdT; assay type: biochemical; conditions: X-family pol; read-out: IC50 Value of MK-2, Calf Terminal deoxynucleotidyl transferase
Calf Terminal deoxynucleotidyl transferase, sequence (P06526 whole entry): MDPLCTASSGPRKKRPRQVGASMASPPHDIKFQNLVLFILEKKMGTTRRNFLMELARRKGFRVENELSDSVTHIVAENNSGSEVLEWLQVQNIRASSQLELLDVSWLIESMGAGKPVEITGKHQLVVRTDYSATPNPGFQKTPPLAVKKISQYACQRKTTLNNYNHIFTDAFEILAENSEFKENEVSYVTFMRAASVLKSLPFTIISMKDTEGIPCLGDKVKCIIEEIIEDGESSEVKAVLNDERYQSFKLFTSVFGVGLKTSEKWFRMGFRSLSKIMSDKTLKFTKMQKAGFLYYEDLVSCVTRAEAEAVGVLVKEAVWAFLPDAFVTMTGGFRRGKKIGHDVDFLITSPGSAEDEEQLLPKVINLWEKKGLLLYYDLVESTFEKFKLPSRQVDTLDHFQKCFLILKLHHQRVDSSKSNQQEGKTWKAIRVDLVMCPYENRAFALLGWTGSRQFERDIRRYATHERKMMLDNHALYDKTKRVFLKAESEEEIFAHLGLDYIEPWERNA
Protocol: as §1, §2

[5] = biological target: T4, Rat DNA polymerase β (Rattus norvegicus, UniProt P06766); assay: DNA polymerase activity assay, rat pol β; assay type: biochemical; conditions: X-family pol; read-out: IC50 Value of MK-2, Rat DNA polymerase β
T4 construct: made in house
Protocol: as §1, §2

[6] = biological target: Cauliflower DNA polymerase α (Brassica oleracea var. botrytis, UniProt A0A0D3D890); assay: DNA polymerase activity assay, cauliflower pol α; assay type: biochemical; conditions: plant pol; read-out: IC50 Value of MK-2, Cauliflower DNA polymerase α
Cauliflower DNA polymerase α, sequence (A0A0D3D890 entry or part of it): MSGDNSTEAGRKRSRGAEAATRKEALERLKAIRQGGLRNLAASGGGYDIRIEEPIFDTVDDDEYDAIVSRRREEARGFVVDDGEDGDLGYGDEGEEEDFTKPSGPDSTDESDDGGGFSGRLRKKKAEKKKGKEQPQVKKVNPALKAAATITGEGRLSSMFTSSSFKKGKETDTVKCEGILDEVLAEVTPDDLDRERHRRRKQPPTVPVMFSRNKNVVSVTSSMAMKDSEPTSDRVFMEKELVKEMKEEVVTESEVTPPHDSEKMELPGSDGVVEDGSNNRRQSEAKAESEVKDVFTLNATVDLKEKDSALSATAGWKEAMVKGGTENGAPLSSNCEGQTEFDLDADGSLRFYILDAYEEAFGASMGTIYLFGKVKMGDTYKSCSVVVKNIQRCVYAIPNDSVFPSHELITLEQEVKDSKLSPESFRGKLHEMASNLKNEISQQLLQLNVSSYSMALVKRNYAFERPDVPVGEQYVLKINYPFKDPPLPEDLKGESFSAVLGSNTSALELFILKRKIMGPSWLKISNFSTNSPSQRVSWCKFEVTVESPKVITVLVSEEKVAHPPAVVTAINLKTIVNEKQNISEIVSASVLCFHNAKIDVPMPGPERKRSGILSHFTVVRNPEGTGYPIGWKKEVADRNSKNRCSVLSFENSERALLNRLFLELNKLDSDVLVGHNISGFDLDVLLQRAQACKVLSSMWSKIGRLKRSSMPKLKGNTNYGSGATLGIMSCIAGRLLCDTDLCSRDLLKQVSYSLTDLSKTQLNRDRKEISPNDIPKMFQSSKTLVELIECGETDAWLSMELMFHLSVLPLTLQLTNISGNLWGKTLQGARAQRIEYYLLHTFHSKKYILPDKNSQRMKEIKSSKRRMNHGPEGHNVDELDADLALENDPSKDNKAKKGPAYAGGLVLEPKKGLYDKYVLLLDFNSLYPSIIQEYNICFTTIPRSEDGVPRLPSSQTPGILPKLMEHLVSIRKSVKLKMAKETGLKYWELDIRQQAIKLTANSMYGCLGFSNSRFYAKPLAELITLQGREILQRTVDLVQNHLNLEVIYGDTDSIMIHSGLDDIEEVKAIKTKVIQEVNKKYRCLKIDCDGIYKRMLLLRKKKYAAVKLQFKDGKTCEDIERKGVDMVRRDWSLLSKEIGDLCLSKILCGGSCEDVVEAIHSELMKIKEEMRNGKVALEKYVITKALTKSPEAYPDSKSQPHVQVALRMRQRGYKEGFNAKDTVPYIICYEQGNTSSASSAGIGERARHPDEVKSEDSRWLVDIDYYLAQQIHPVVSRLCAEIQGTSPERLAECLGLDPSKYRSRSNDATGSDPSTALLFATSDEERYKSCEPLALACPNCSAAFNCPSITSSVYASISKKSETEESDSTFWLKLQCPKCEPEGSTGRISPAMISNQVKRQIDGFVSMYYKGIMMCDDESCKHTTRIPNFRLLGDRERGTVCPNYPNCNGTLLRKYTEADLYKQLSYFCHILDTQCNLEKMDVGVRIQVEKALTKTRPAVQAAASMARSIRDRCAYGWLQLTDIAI
Protocol: as §1, §2

[7] = biological target: T5, Human DNA polymerase γ (Homo sapiens, UniProt P54098); set-up: method as in PMID 18312466, PMID 18698499, PMID 20030669, PMID 20881898; conditions: earlier work of the authors; cited from earlier work
T5 construct: made in house
T5 sequence (P54098 1-1239): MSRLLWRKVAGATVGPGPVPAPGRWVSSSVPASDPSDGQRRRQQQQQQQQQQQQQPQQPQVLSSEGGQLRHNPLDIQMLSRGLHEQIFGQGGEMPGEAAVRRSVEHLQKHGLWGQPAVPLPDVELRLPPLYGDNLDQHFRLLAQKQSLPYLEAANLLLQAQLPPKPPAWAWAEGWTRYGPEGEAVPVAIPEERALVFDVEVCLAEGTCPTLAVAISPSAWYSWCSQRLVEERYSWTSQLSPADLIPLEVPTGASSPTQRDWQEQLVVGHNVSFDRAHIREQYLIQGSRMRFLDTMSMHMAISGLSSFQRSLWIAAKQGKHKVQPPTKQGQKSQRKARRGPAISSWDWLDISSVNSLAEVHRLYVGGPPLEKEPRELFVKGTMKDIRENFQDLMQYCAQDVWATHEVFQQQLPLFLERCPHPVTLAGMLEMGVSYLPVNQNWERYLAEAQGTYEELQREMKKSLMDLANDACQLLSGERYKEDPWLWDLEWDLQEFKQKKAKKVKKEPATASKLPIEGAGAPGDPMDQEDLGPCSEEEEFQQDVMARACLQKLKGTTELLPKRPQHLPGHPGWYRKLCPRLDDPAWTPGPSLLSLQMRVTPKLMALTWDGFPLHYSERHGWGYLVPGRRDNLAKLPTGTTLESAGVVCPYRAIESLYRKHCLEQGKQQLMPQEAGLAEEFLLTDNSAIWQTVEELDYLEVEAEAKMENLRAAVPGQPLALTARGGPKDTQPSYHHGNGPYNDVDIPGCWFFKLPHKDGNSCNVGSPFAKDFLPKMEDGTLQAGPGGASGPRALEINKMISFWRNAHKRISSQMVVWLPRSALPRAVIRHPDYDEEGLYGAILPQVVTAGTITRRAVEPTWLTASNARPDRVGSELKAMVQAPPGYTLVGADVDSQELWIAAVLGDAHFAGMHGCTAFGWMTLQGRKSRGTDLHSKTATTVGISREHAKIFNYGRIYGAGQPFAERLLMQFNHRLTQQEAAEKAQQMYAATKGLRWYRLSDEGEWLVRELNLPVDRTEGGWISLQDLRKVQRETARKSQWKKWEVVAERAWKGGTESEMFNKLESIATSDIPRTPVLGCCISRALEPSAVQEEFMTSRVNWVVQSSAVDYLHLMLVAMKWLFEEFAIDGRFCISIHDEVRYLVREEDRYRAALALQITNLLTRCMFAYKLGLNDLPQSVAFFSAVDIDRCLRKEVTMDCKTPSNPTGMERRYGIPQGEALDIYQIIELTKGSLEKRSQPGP

T1 sequence (Q6R3M4 whole entry): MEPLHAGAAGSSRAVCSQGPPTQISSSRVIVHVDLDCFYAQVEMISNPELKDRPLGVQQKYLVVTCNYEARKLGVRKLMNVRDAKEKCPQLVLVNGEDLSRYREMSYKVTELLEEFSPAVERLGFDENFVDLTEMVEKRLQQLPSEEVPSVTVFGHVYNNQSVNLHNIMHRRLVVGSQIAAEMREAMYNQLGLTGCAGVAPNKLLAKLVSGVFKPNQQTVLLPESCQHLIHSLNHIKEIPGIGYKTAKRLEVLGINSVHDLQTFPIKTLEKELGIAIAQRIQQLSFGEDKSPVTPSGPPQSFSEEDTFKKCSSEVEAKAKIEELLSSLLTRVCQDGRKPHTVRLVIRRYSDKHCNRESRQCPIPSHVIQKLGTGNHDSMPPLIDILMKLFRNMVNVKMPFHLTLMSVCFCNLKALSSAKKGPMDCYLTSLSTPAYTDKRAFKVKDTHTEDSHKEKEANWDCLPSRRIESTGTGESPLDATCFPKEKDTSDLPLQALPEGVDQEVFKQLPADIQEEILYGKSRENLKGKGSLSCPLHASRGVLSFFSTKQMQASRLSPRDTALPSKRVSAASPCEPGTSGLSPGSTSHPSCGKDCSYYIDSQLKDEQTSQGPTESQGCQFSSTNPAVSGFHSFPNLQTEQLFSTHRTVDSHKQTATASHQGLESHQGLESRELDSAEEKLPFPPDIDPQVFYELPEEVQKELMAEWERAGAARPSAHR

SMILES	IC50 [1]	IC50 [2]	IC50 [3]	IC50 [4]	IC50 [5]	IC50 [6]	Inhibitor of human pol γ [7]
CC(C)=CCC/C(C)=C/CC1=C(C)C(=O)c2ccccc2C1=O [MK-2]	39 ± 2.3 µM	34 ± 2 µM	> 200 µM	29.4 ± 1.7 µM	31 ± 1.8 µM	> 200 µM	–
CC(C)=CCC/C(C)=C/CC/C(C)=C/CC/C(C)=C/CC1=C(C)C(=O)c2ccccc2C1=O [MK-4, menaquinone 4, reference compound]	–	–	–	–	–	–	not
